Experimental data published in patent US8076285B2, “Lysobactin amides” (Aicuris GmbH & Co. KG, priority 2006, dated 2011).

conditions: amide bond; 28-membered ring

Substance	ring closure, isolated yield [%]
[(3R)-N^2-(Benzyloxycarbonyl)-3-amino-3-(pyridin-3-yl)-L-alanyl]-[(3R)-3-hydroxy-L-leucyl]-L-leucyl-D-arginyl-L-isoleucyl-L-allothreonyl-glycyl-[(3R)-3-hydroxy-L-asparaginyl]-L-serine C^1.9-N^3.1-lactam bis-trifluoroacetate	61
[(3R)-N^2-(Benzyloxycarbonyl)-3-amino-L-leucyl]-[(3R)-3-hydroxy-L-leucyl]-L-leucyl-D-arginyl-L isoleucyl-L-allothreonyl-glycyl-[(3R)-3-hydroxy-L-asparaginyl]-L-serine C^1.9-N^3.1-lactam trifluoroacetate	53
[(3R)-N^2-(Benzyloxycarbonyl)-3-amino-L-phenylalanyl]-L-threonyl-L-leucyl-D-arginyl-L-isoleucyl-L-allothreonyl-glycyl-L-seryl C^1.9-N^3.1-lactam trifluoroacetate	73
[(3R)-N^2-(Benzyloxycarbonyl)-3-amino-L-phenylalanyl]-[(3R)-3-hydroxy-L-leucyl]-(3-trimethylsilyl-L-alanyl)-D-arginyl-L-isoleucyl-L-allothreonyl-glycyl-L-seryl-L-serine C^1.9-N^3.1-lactam trifluoroacetate	98
[(3R)-N^2-(Benzyloxycarbonyl)-3-amino-L-phenylalanyl]-[(3R)-3-hydroxy-L-leucyl]-L-isoleucyl-D-arginyl-L-isoleucyl-L-allothreonyl-glycyl-L-seryl-L-serine C^1.9-N^3.1-lactam trifluoroacetate	62
[(3R)-N^2-(Benzyloxycarbonyl)-3-amino-L-phenylalanyl]-[(3R)-3-hydroxy-L-leucyl]-L-leucyl-D-arginyl-L-isoleucyl-L-allothreonyl-D-alanyl-[(3S)-3-hydroxy-L-asparaginyl]-L-serine C^1.9-N^3.1-lactam trifluoroacetate	48
[(3R)-N^2-(Benzyloxycarbonyl)-3-amino-L-phenylalanyl]-[(3R)-3-hydroxy-L-leucyl]-L-leucyl-D-arginyl-L-isoleucyl-L-allothreonyl-D-seryl-L-seryl-L-serine C^1.9-N^3.1-lactam trifluoroacetate	93
[(3R)-N^2-(Benzyloxycarbonyl)-3-amino-L-phenylalanyl]-[(3R)-3-hydroxy-L-leucyl]-L-leucyl-D-arginyl-L-isoleucyl-L-allothreonyl-glycyl-[(2S)-2-amino-3-(9H-fluoren-9-ylmethoxycarbonyl)aminobutyryl]-L-serine C^1.9-N^3.1-lactam trifluoroacetate	67
[(3R)-N^2-(Benzyloxycarbonyl)-3-amino-L-phenylalanyl]-[(3R)-3-hydroxy-L-leucyl]-L-leucyl-D-arginyl-L-isoleucyl-L-allothreonyl-glycyl-[(3S)-3-hydroxy-L-asparaginyl]-L-alanine C^1.9-N^3.1-lactam trifluoroacetate	93
[(3R)-N^2-(Benzyloxycarbonyl)-3-amino-L-phenylalanyl]-[(3R)-3-hydroxy-L-leucyl]-L-leucyl-D-arginyl-L-isoleucyl-L-allothreonyl-glycyl-glycyl-L-serine C^1.9-N^3.1-lactam trifluoroacetate	38
[(3R)-N^2-(Benzyloxycarbonyl)-3-amino-L-phenylalanyl]-[(3R)-3-hydroxy-L-leucyl]-L-leucyl-D-arginyl-L-isoleucyl-L-leucyl-glycyl-L-seryl-L-serine C^1.9-N^3.1-lactam trifluoroacetate	97
[(3R)-N^2-(Benzyloxycarbonyl)-3-amino-L-phenylalanyl]-[(3R)-3-hydroxy-L-leucyl]-L-leucyl-D-arginyl-L-isoleucyl-L-seryl-glycyl-L-seryl-L-serine C^1.9-N^3.1-lactam trifluoroacetate	81
[(3R)-N^2-(Benzyloxycarbonyl)-3-amino-L-phenylalanyl]-[(3R)-3-hydroxy-L-leucyl]-L-leucyl-D-arginyl-L-isoleucyl-L-valyl-glycyl-L-seryl-L-serine C^1.9-N^3.1-lactam trifluoroacetate	62
[(3R)-N^2-(Benzyloxycarbonyl)-3-amino-L-phenylalanyl]-[(3R)-3-hydroxy-L-leucyl]-L-leucyl-D-arginyl-L-leucyl-L-allothreonyl-glycyl-L-seryl-L-serine C^1.9-N^3.1-lactam trifluoroacetate	87
[(3R)-N^2-(Benzyloxycarbonyl)-3-amino-L-phenylalanyl]-[(3R)-3-hydroxy-L-leucyl]-L-leucyl-D-arginyl-L-phenylalanlyl-L-allothreonyl-glycyl-L-seryl-L-serine C^1.9-N^3.1-lactam trifluoroacetate	76
[(3R)-N^2-(Benzyloxycarbonyl)-3-amino-L-phenylalanyl]-[(3R)-3-hydroxy-L-leucyl]-L-leucyl-D-arginyl-L-valyl-L-allothreonyl-glycyl-L-seryl-L-serine C^1.9-N^3.1-lactam trifluoroacetate	91
[(3R)-N^2-(Benzyloxycarbonyl)-3-amino-L-phenylalanyl]-[(3R)-3-hydroxy-L-leucyl]-L-leucyl-D-arginyl-[3-trimethylsilyl-L-alanlyl]-L-allothreonyl-glycyl-L-seryl-L-serine C^1.9-N^3.1-lactam trifluoroacetate	51
[(3R)-N^2-(Benzyloxycarbonyl)-3-amino-L-phenylalanyl]-[(3R)-3-hydroxy-L-leucyl]-L-norleucyl-D-arginyl)-L-isoleucyl-L-allothreonyl-glycyl-L-alanyl-L-serine C^1.9-N^3.1-lactam trifluoroacetate	80
[(3R)-N^2-(Benzyloxycarbonyl)-3-amino-L-phenylalanyl]-[(3R)-3-hydroxy-L-leucyl]-L-norvalyl-D-arginyl-L-isoleucyl-L-allothreonyl-glycyl-L-alanyl-L-serine C^1.9-N^3.1-lactam trifluoroacetate	100
[(3R)-N^2-(Benzyloxycarbonyl)-3-amino-L-phenylalanyl]-[(3R)-3-hydroxy-L-leucyl]-L-norvalyl-D-arginyl-L-isoleucyl-L-allothreonyl-glycyl-L-seryl-L-serine C^1.9-N^3.1-lactam trifluoroacetate	77
[(3R)-N^2-(Benzyloxycarbonyl)-3-amino-L-phenylalanyl]-[(3R)-3-hydroxy-L-leucyl]-L-valyl-D-arginyl-L-isoleucyl-L-allothreonyl-glycyl-L-seryl-L-serine C^1.9-N^3.1-lactam trifluoroacetate	100
[(3R)-N^2-(Benzyloxycarbonyl)-3-amino-L-phenylalanyl]-[(3R)-3-hydroxy-L-leucyl]-[3-tertbutyl-L-alanyl]-D-arginyl-L-isoleucyl-L-allothreonyl-glycyl-L-seryl-L-serine C^1.9-N^3.1-lactam trifluoroacetate	90
{(3R)-N^2-[(9H-Fluoren-9-ylmethoxy)carbonyl]-3-amino-L-phenylalanyl}-[(3R)-3-hydroxy-L-leucyl]-L-leucyl-(N^5-benzyloxycarbonyl-D-ornithyl)-L-isoleucyl-L-allothreonyl-glycyl-L-seryl-L-serine C^1.9-N^3.1-lactam trifluoroacetate	48
{(3R)-N^2-[(9H-Fluoren-9-ylmethoxy)carbonyl]-3-amino-L-phenylalanyl}-[(3R)-3-hydroxy-L-leucyl]-L-leucyl-(N^6-benzyloxycarbonyl-D-lysyl)-L-isoleucyl-L-allothreonyl-glycyl-L-seryl-L-serine C^1.9-N^3.1-lactam trifluoroacetate	78
{(3R)-N^2-[(9H-Fluoren-9-ylmethoxy)carbonyl]-3-amino-L-phenylalanyl}-[(3R)-3-hydroxy-L-leucyl]-L-leucyl-D-arginyl-L-isoleucyl-L-allothreonyl-glycyl-(N^5-benzyloxycarbonyl-L-ornithyl-L-serine C^1.9-N^3.1-lactam trifluoroacetate	88

same assay, conditions: amide bond; 28-membered ring; HATU/NMM; DMF; 0.0 °C

Substance	ring closure, isolated yield [%]
N^2.1-(Benzyloxycarbonyl)-[(3R)-3-amino-O-methyl-L-tyrosyl)]-[(3R)-3-hydroxy-L-leucyl]-L-leucyl-D-arginyl-L-isoleucyl-L-allothreonyl-glycyl-[(3S)-3-hydroxy-L-asparaginyl]-L-serine C^1.9-N^3.1-lactam trifluoroacetate	33
[(3R)-N^2-(Benzyloxycarbonyl)-3-amino-L-phenylalanyl]-[(3R)-3-hydroxy-L-leucyl]-L-leucyl-D-arginyl-L-isoleucyl-L-allothreonyl-glycyl-L-alanyl-L-serine C^1.9-N^3.1-lactam trifluoroacetate	77
[(3R)-N^2-(Benzyloxycarbonyl)-3-amino-L-phenylalanyl]-[(3R)-3-hydroxy-L-leucyl]-L-leucyl-D-arginyl-L-isoleucyl-L-allothreonyl-glycyl-L-asparaginyl-L-serine C^1.9-N^3.1-lactam trifluoroacetate	75
[(3R)-N^2-(Benzyloxycarbonyl)-3-amino-L-phenylalanyl]-[(3R)-3-hydroxy-L-leucyl]-L-leucyl-D-arginyl-L-isoleucyl-L-allothreonyl-glycyl-[(3S)-3-hydroxy-L-asparaginyl]-L-serine C^1.9-N^3.1-lactam trifluoroacetate	73

same assay, conditions: amide bond; 28-membered ring; HATU/NMM; DMF; 7.5 mM; 0.0 °C

Substance	ring closure, isolated yield [%]
N^2.1-(Benzyloxycarbonyl)-[(3S)-3-amino-O-methyl-D-tyrosyl)]-[(3R)-3-hydroxy-L-leucyl]-L-leucyl-D-arginyl-L-isoleucyl-L-allothreonyl-glycyl-[(3S)-3-hydroxy-L-asparaginyl]-L-serine C^1.9-N^3.1-lactam trifluoroacetate	96
